Measurements as given in patent publication US12195468B2, “TLR7 agonist for treating colorectal cancer and pharmaceutical combination thereof” (CHIA TAI TIANQING PHARMACEUTICAL GROUP CO., LTD., priority 2018, dated 2025).

System: MC-38 colon cancer
Test: Anti-tumor experiment in MC-38 mouse model (subcutaneous xenograft tumor of MC-38 colon cancer in mice)
Assay type: in vivo
Details: for TV (mm^3) on day 0 Mean ± SD: day 0 (baseline at grouping); for TV (mm^3) on day 0 Mean ± SD / TV (mm^3) on day 12 Mean ± SD / TV (mm^3) on day 18 Mean ± SD: female C57BL/6 mice; for TV (mm^3) on day 0 Mean ± SD / TV (mm^3) on day 12 Mean ± SD / TV (mm^3) on day 18 Mean ± SD / TGI (%): i.g., anlotinib 1 mg/kg qd, TLR7 agonist 20 mg/kg tiw, 2 w; for TGI (%): tumor growth inhibition from tumor weight vs control group at end of experiment
Method: In Example 1, the TLR7 agonist is selected from
[drawing 58] and anlotinib is selected fromanlotinib dihydrochloride.
The MC-38 is a colon cancer cell of mouse from Jiangsu Cyto Biotechnology Co., Ltd.
Subcutaneously grafted tumor cells of MC-38 colon cancer (concentration: 2×10^6/mL×0.2 mL/mouse) were inoculated into female C57BL/6 mice at the right side armpit (the site to be inoculated was shaved before inoculating) in a sterile environment, and passaged using a block insertion method. The C57BL/6 mice were 16-18 g in weight, and the breeding environment was SPF level. The diameter of the C57BL/6 xenograft tumor was measured using a vernier caliper, and the mice were randomized into 4 groups when the tumors grew to 100-300 mm^3 (12 mice for control group and 6 mice each for other groups): • i. Control group (blank control); • ii. Monotherapy group: anlotinib, with normal saline as vehicle; • iii. Monotherapy group: TLR7 agonist, with ethanol+tween 80+normal saline (v:v:v=5:5:90) as vehicle; • iv.
The administration method of the combination therapy group is consistent with that of the monotherapy group.
Weights and diameter of the tumor were measured every three days, and the behavior of mice was observed daily. After the experiment was completed, the tumors were removed, weighed and photographed.
The tumor volume and the tumor growth inhibition were calculated using the following formulas: Tumor volume (TV)=(L×W^2)/2.
The TGI (%), as a value of efficacy, was substituted into the Jin zhengjun's formula q=Eab/(Ea+Eb−Ea×Eb), where Ea and Eb represent the efficacy of medicaments used alone, and Eab represents the efficacy of combined use.

COc1cc2c(Oc3ccc4[nH]c(C)cc4c3F)ccnc2cc1OCC1(N)CC1 [anlotinib, 1-[[[4-(4-fluoro-2-methyl-1H-indol-5-yl)oxy-6-methoxyquinolin-7-yl]oxy]methyl]cyclopropylamine, reference compound]
TV (mm^3) on day 0 Mean ± SD: 143.28 ± 45.46 mm^3
TV (mm^3) on day 12 Mean ± SD: 427.30 ± 135.63 mm^3
TV (mm^3) on day 18 Mean ± SD: 900.32 ± 346.06 mm^3
TGI (%): 33%

CCCCOc1nc(N)c2[nH]cc(Cc3ccc(CN4CCCC4)cc3)c2n1 [TLR7 agonist]
TV (mm^3) on day 0 Mean ± SD: 143.93 ± 47.74 mm^3
TV (mm^3) on day 12 Mean ± SD: 427.88 ± 161.31 mm^3
TV (mm^3) on day 18 Mean ± SD: 747.63 ± 347.13 mm^3
effect on growth of MC-38 tumor (in words) (summary of Table 2): can inhibit the growth of MC-38 tumor
TGI (%): 39%
